Data taken from patent publication US20050004134A1, “Thiazole derivative and pharmaceutical use thereof” (priority 2001, published 2005).

melting point [°C] | Structure (SMILES)
252 to 253 | COCCNCC(=O)Nc1nc(-c2ccccc2)c(-c2ccc(=O)n(C(C)C)n2)s1.Cl
244 to 246 | CC(C)n1nc(-c2sc(NC(=O)CN3CCN(C)CC3)nc2-c2ccccc2)ccc1=O.Cl.Cl
252 to 253 | CC(C)n1nc(-c2sc(NC(=O)CN3CCOCC3)nc2-c2ccccc2)ccc1=O.Cl
> 250 | CC(C)n1nc(-c2sc(NC(=O)CN3CCCC3)nc2-c2ccccc2)ccc1=O.Cl
232 to 234 | CC(C)n1nc(-c2sc(NC(=O)CN(C)C)nc2-c2ccccc2)ccc1=O.Cl
207 to 209 | CC(C)n1nc(-c2sc(NC(=O)CNCCCN3CCCC3=O)nc2-c2ccccc2)ccc1=O.Cl
209 to 211 | CC(O)CNCC(=O)Nc1nc(-c2ccccc2)c(-c2ccc(=O)n(C(C)C)n2)s1.Cl (stereo not drawn)
218 to 220 | CC(C)n1nc(-c2sc(NC(=O)CNCC(O)c3ccccc3)nc2-c2ccccc2)ccc1=O.Cl (stereo not drawn)
136 to 142 | CC(C)n1nc(-c2sc(NC(=O)CNCCCO)nc2-c2ccccc2)ccc1=O.Cl
211 to 213 | CC(C)n1nc(-c2sc(NC(=O)CNCCCN3CCOCC3)nc2-c2ccccc2)ccc1=O.Cl.Cl
136 to 142 | CC(C)n1nc(-c2sc(NC(=O)CNCCN(C)C)nc2-c2ccccc2)ccc1=O.Cl.Cl
224 to 225 | CC(C)n1nc(-c2sc(NC(=O)CCN3CCCC3)nc2-c2ccccc2)ccc1=O.Cl
157 to 159 | CCN(CC)CCNCC(=O)Nc1nc(-c2ccccc2)c(-c2ccc(=O)n(C(C)C)n2)s1.Cl.Cl
250 to 252 | CC(C)n1nc(-c2sc(NC(=O)CNCCN3CCOCC3)nc2-c2ccccc2)ccc1=O.Cl.Cl
> 250 | CC(C)NCC(=O)Nc1nc(-c2ccccc2)c(-c2ccc(=O)n(C(C)C)n2)s1.Cl
123 to 125 | CC(C)n1nc(-c2sc(NC(=O)CNC3CC3)nc2-c2ccccc2)ccc1=O.Cl
> 250 | COCCCNCC(=O)Nc1nc(-c2ccccc2)c(-c2ccc(=O)n(C(C)C)n2)s1.Cl
252 to 253 | CCOCCNCC(=O)Nc1nc(-c2ccccc2)c(-c2ccc(=O)n(C(C)C)n2)s1.Cl
> 250 | CC(C)n1nc(-c2sc(NC(=O)CNCCN3CCCCC3)nc2-c2ccccc2)ccc1=O.Cl.Cl
140 to 143 | CC(C)n1nc(-c2sc(NCCN3CCOCC3)nc2-c2ccccc2)ccc1=O.Cl.Cl
150 to 153 | CC(C)n1nc(-c2sc(NCCCN3CCOCC3)nc2-c2ccccc2)ccc1=O.Cl.Cl
226 to 228 | Br.CNc1nc(-c2ccccc2)c(-c2ccc(=O)n(C(C)C)n2)s1
127 to 129 | Br.CC(C)n1nc(-c2sc(Nc3ccccc3)nc2-c2ccccc2)ccc1=O
204 to 205 | Br.CCCCNc1nc(-c2ccccc2)c(-c2ccc(=O)n(C(C)C)n2)s1
205 to 207 | CC(C)n1nc(-c2sc(NC(=O)Oc3ccccc3)nc2-c2ccccc2)ccc1=O
> 250 | CC(C)n1nc(-c2sc(N)nc2-c2ccccc2)ccc1=O [Example 1, 6-(2-amino-4-phenyl-1,3-thiazol-5-yl)-2-isopropyl-3(2H)-pyridazinone]

melting point [°C] | Structure (SMILES)
126 to 129 | CC(C)n1nc(-c2sc(NC(=O)c3ccccc3)nc2-c2ccccc2)ccc1=O [Example 2, N-[5-(1-isopropyl-6-oxo-1,6-dihydro-3-pyridazinyl)-4-phenyl-1,3-thiazol-2-yl]-benzamide]
250 to 252 | CC(C)n1nc(-c2sc(NC(=O)Cc3ccccc3)nc2-c2ccccc2)ccc1=O [Example 4, N-[5-(1-Isopropyl-6-oxo-1,6-dihydro-3-pyridazinyl)-4-phenyl-1,3-thiazol-2-yl]-2-phenylacetamide]
224 to 226 | CC(C)n1nc(-c2sc(NC(=O)C(C)(C)C)nc2-c2ccccc2)ccc1=O [Example 5, N-[5-(1-Isopropyl-6-oxo-1,6-dihydro-3-pyridazinyl)-4-phenyl-1,3-thiazol-2-yl]-2,2-dimethylpropanamide]
202 to 204 | CC(=O)Nc1nc(-c2ccccc2)c(-c2ccc(=O)n(C(C)C)n2)s1 [Example 6, N-[5-(1-isopropyl-6-oxo-1,6-dihydro-3-pyridazinyl)-4-phenyl-1,3-thiazol-2-yl]-acetamide]
234 to 236 | CC(C)n1nc(-c2sc(NC(=O)C3CCCCC3)nc2-c2ccccc2)ccc1=O [Example 7, N-[5-(1-Isopropyl-6-oxo-1,6-dihydro-3-pyridazinyl)-4-phenyl-1,3-thiazol-2-yl]cyclohexanecarboxamide]
243 to 244 | CC(C)n1nc(-c2sc(NC(=O)COc3ccccc3)nc2-c2ccccc2)ccc1=O [Example 8, N-[5-(1-Isopropyl-6-oxo-1,6-dihydro-3-pyridazinyl)-4-phenyl-1,3-thiazol-2-yl]-2-phenoxyacetamide]
200 to 201 | CC(C)n1nc(-c2sc(NC(=O)NCc3ccccc3)nc2-c2ccccc2)ccc1=O [Example 11, N-benzyl-N′-[5-(1-isopropyl-6-oxo-1,6-dihydro-3-pyridazinyl)-4-phenyl-1,3-thiazol-2-yl]urea]
172 to 174 | Cc1ccc(S(=O)(=O)NC(=O)Nc2nc(-c3ccccc3)c(-c3ccc(=O)n(C(C)C)n3)s2)cc1 [Example 12, N-({[5-(1-Isopropyl-6-oxo-1,6-dihydro-3-pyridazinyl)-4-phenyl-1,3-thiazol-2-yl]amino}carbonyl)-4-methylbenzene-sulfonamide]
90 to 92 | CCCCCCNc1nc(-c2ccccc2)c(-c2ccc(=O)n(C(C)C)n2)s1 [Example 14, 6-[2-(hexylamino)-4-phenyl-1,3-thiazol-5-yl]-2-isopropyl-3(2H)-pyridazinone]
226 to 228 | CC(C)n1nc(-c2sc(Nc3cccnc3)nc2-c2ccccc2)ccc1=O [Example 16, 2-Isopropyl-6-[4-phenyl-2-(3-pyridinylamino)-1,3-thiazol-5-yl]-3(2H)-pyridazinone]
182 to 184 | CC(C)n1nc(-c2sc(NCc3ccccn3)nc2-c2ccccc2)ccc1=O [Example 20, 2-Isopropyl-6-{4-phenyl-2-[(2-pyridinylmethyl)amino]-1,3-thiazol-5-yl}-3(2H)-pyridazinone]
165 to 167 | CC(=O)N(C)c1nc(-c2ccccc2)c(-c2ccc(=O)n(C(C)C)n2)s1 [Example 22, N-[5-(1-isopropyl-6-oxo-1,6-dihydro-3-pyridazinyl)-4-phenyl-1,3-thiazol-2-yl]-N-methylacetamide]
158 to 160 | CC(C)n1nc(-c2sc(N(C)C)nc2-c2ccccc2)ccc1=O [Example 23, 6-[2-(dimethylamino)-4-phenyl-1,3-thiazol-5-yl]-2-isopropyl-3(2H)-pyridazinone]
245 to 246 | CC(C)n1nc(-c2sc(NC(=O)c3ccccn3)nc2-c2ccccc2)ccc1=O [Example 26, N-[5-(1-Isopropyl-6-oxo-1,6-dihydro-3-pyridazinyl)-4-phenyl-1,3-thiazol-2-yl]-2-pyridinecarboxamide]
222 to 224 | CC(C)n1nc(-c2sc(NC(=O)c3ccc(CN4CCOCC4)cc3)nc2-c2ccccc2)ccc1=O [Example 27, N-[5-(1-Isopropyl-6-oxo-1,6-dihydro-3-pyridazinyl)-4-phenyl-1,3-thiazol-2-yl]-4-(4-morpholinylmethyl)benzamide]
246 to 248 | CC(C)n1nc(-c2sc(NC(=O)c3ccc(CN(C)C)cc3)nc2-c2ccccc2)ccc1=O [Example 28, 4-[(Dimethylamino)methyl]-N-[5-(1-isopropyl-6-oxo-1,6-dihydro-3-pyridazinyl)-4-phenyl-1,3-thiazol-2-yl]benzamide]
227 to 229 | CC(C)n1nc(-c2sc(NC(=O)c3ccc4ccccc4c3)nc2-c2ccccc2)ccc1=O [Example 30, N-[5-(1-Isopropyl-6-oxo-1,6-dihydro-3-pyridazinyl)-4-phenyl-1,3-thiazol-2-yl]-2-naphthamide]
223 to 224 | CC(C)n1nc(-c2sc(NC(=O)c3cccc4ccccc34)nc2-c2ccccc2)ccc1=O [Example 31, N-[5-(1-Isopropyl-6-oxo-1,6-dihydro-3-pyridazinyl)-4-phenyl-1,3-thiazol-2-yl]-1-naphthamide]
231 to 232 | CC(C)n1nc(-c2sc(NC(=O)N3CCOCC3)nc2-c2ccccc2)ccc1=O [Example 32, N-[5-(1-Isopropyl-6-oxo-1,6-dihydro-3-pyridazinyl)-4-phenyl-1,3-thiazol-2-yl]-4-morpholinecarboxamide]
226 to 227 | CC(C)n1nc(-c2sc(NC(=O)C3CC3)nc2-c2ccccc2)ccc1=O [Example 33, N-[5-(1-Isopropyl-6-oxo-1,6-dihydro-3-pyridazinyl)-4-phenyl-1,3-thiazol-2-yl]cyclopropanecarboxamide]
221 to 222 | Cc1ccccc1C(=O)Nc1nc(-c2ccccc2)c(-c2ccc(=O)n(C(C)C)n2)s1 [Example 34, N-[5-(1-Isopropyl-6-oxo-1,6-dihydro-3-pyridazinyl)-4-phenyl-1,3-thiazol-2-yl]-2-methylbenzamide]
173 to 174 | CC(C)n1nc(-c2sc(NC(=O)c3cccc(Cl)c3)nc2-c2ccccc2)ccc1=O [Example 35, 3-Chloro-N-[5-(1-isopropyl-6-oxo-1,6-dihydro-3-pyridazinyl)-4-phenyl-1,3-thiazol-2-yl]benzamide]
183 to 184 | CC(C)n1nc(-c2sc(NC(=O)c3cccc(F)c3)nc2-c2ccccc2)ccc1=O [Example 36, 3-Fluoro-N-[5-(1-isopropyl-6-oxo-1,6-dihydro-3-pyridazinyl)-4-phenyl-1,3-thiazol-2-yl]benzamide]
251 to 252 | CC(C)n1nc(-c2sc(NC(=O)c3ccccc3F)nc2-c2ccccc2)ccc1=O [Example 37, 2-Fluoro-N-[5-(1-isopropyl-6-oxo-1,6-dihydro-3-pyridazinyl)-4-phenyl-1,3-thiazol-2-yl]benzamide]
237 to 238 | CC(C)n1nc(-c2sc(NC(=O)c3cccc(C(F)(F)F)c3)nc2-c2ccccc2)ccc1=O [Example 38, N-[5-(1-Isopropyl-6-oxo-1,6-dihydro-3-pyridazinyl)-4-phenyl-1,3-thiazol-2-yl]-3-(trifluoromethyl)benzamide]
